# Reference: patent US8642801B2 (BHI Limited Partnership, priority 2003, dated 2014)
# System: Aβ40 and Aβ42 peptides in plasma and brain of TgCRND8 mice
# Experiment: Short term treatment in adult transgenic CRND8 mice overexpressing βAPP: Aβ levels in plasma and brain by ELISA
# Type: in vivo, Mouse
# Details: after 14 and 28 days of treatment, TgCRND8 mice
# Outline: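 TgCRND8 mice (B6C3F1 backcross, ~11 weeks at treatment start) given short-term treatment; Aβ40 and Aβ42 in plasma and soluble/insoluble brain fractions measured by fluorometric sandwich ELISA (ex 460/em 560 nm). Levels normalized to vehicle (water or methylcellulose) groups and scored as +/− symbols by effect strength.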
smiles,measurement,value
"CC(C)(C)NCCCS(=O)(=O)O [BX, 3-(t-butyl)amino-1-propanesulfonic acid]",levels of Aβ peptides in the plasma,significant increase
